Consider 15 compounds from patent US8217045B2, “Organic compounds” (Novartis AG, priority 2007, dated 2012).

Residue numbers refer to the chain shown, from its start.

In one data set the target is T1, c-Abl (His-cAbl) (Homo sapiens, UniProt P00519).
T1 construct: The His-tagged kinase domain of Abl is cloned and expressed; His tag; made in house; host or cells: baculovirus/Sf9
T1 sequence (P00519 242-493 limits assumed): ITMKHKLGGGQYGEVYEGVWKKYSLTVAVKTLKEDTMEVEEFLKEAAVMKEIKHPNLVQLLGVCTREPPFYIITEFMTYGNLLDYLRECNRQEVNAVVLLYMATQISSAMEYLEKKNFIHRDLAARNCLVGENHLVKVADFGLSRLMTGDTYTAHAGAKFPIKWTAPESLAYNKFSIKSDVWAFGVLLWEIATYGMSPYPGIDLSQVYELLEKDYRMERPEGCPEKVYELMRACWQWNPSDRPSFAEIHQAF
In words: in vitro enzyme assay, wild-type Abl catalysed phosphorylation. The data set is classed as biochemical. The note with it: 16 nM His-cAbl, 10 μM ATP, 1 hour at 30° C.; read-out: IC50, inhibition of wild-type Abl catalysed phosphorylation. On the procedure:
(§1) Test for activity against wild-type and mutant Abl protein tyrosine kinase:
(§2) The test, an in vitro enzyme assay, is conducted as a filter binding assay as follows: The His-tagged kinase domain of Abl is cloned and expressed in the baculovirus/Sf9 system as described by Bhat et al., J. Biol. Chem. 1997; 272:16170-16175. A protein of 37 kD (Abl kinase) is purified by a two-step procedure over a Cobalt metal chelate column followed by an anion exchange column with a yield of 1-2 mg/L of Sf9 cells. The purity of the Abl kinase is >90% as judged by SDS-PAGE after Coomassie blue staining.
(§3) Based on the optimized assay conditions for the individual kinases a specific assay set-up was chosen. The assays were prepared and incubated on a liquid handling robot system using 384-well plates. To the assay plates containing 50 nL compound or control solutions, 4.5 μL of solution A consisting of the peptide substrate and ATP in assay buffer were added. The reactions were initiated by adding 4.5 μL of solution B consisting of the respective kinase in assay buffer. The reactions were incubated for 1 hour at 30° C. in a final reaction volume of 9.05 μL. Based on a generic assay buffer (50 mM HEPES pH7.5, 1 mM DTT, 0.02% Tween20, 0.02% BSA), following components were added depending on the chosen kinase: • c-Abl: 16 nM His-cAbl, 5 μM peptide substrate (FITC-Ahx-EAIYAAPFAKKK-CONH2), 10 mM MgCl2, 10 μM ATP • c-Abl-T315I: 2.4 nM His-cAbl-T315I, 5 μM peptide substrate (FITC-Ahx-EAIYAAPFAKKK-CONH2), 10 mM MgCl2, 10 μM ATP
(§4) After incubation, the kinase reactions were stopped by the addition of 16 μL of stop solution (100 mM HEPES, 5% DMSO, 0.1% Coating reagent, 10 mM EDTA, 0.015% Brij 35). Subsequently, the assay plates were transferred to a Caliper LabChip3000 reader and the unphosphorylated substrate and the phosphorylated product were separated and quantitated in a microfluidic chip.

The target in another data set is Bcr-Abl (Homo sapiens, UniProt P00519). In words: Bcr-Abl phosphorylation capture ELISA in 32D-Bcr-Abl cells. The data set is classed as cell-based, murine. The note with it: 90 min at 37° C., read-out: IC50, reduction of Bcr-Abl phosphorylation. The source says: 32D cl3 cells are obtained from the American Type Culture Collection (ATCC CRL11346) and Ba/F3 cells are obtained from the German Collection of Microorganisms and Cell Cultures (DSMZ, Braunschweig and DSMZ No. ACC 300) Palacios et al., Nature, 1984; 309:126 and Palacios et al., Cell, 1985:41:72.
Oncogene 1996; 12: 839-46; and Okuda K, Golub T R, Gilliland D G, Griffin J D. p210BCR-ABL, p190BCR-ABL, and TEL/ABL activate similar signal transduction pathways in hematopoietic cell lines. Oncogene 1996; 13:1147-52.)
The cells express the fusion Bcr-Abl protein with a constitutively active Abl kinase and proliferate growth factor independent. The cells are expanded in RPMI 1640 (AMIMED), 10% fetal calf serum (FCS), 2 mM glutamine (Gibco) (“complete medium”), and a working stock is prepared by freezing aliquots of 2×10^6 cells per vial in freezing medium (95% FCS, 5% DMSO (SIGMA)). After thawing, the cells are used during maximally 10-12 passages for the experiments. The antibody anti-Abl SH3 domain cat. #06-466 from Upstate Biotechnology is used for the ELISA. For detection of Bcr-Abl phosphorylation, the anti-phosphotyrosine antibody Ab PY20, labelled with alkaline phosphatase ([…]) from ZYMED (cat. #03-7722) is used. […]
On the technique in general: ELISA stands for enzyme-linked immunosorbent assay.

For data set [1], the target named is T2, c-Abl-T315I (His-cAbl-T315I) (Homo sapiens, UniProt P00519, T315I).
T2 construct: The His-tagged kinase domain of Abl is cloned and expressed; His tag; made in house; host or cells: baculovirus/Sf9
T2 sequence (P00519 242-493 T315I limits assumed): T1 sequence (P00519 242-493 limits assumed) with T74I
In words: in vitro enzyme assay, T315I mutant Abl catalysed phosphorylation. The format is biochemical. Conditions: 2.4 nM His-cAbl-T315I, 10 μM ATP, 1 hour at 30° C.; read-out: IC50, inhibition of T315I mutant Abl catalysed phosphorylation. On the procedure:
as §1, §2, §3, §4

`CC(=O)Nc1cc(Oc2ccc3c(C(=O)Nc4cc(-n5cnc(C)c5)cc(C(F)(F)F)c4)cccc3c2)ccn1` [Example 1, 6-[[2-(Acetylamino)-pyridin-4-yl]oxy]-naphthalene-1-carboxylic acid [3-(4-methyl-1H-imidazol-1-yl)-5-(trifluoromethylphenyl)]amide]: on c-Abl (His-cAbl), the IC50 – broadly, the concentration that inhibits the measured activity by half – is < 5 nM.
As to `Cc1cn(-c2cc(NC(=O)c3cccc4cc(Oc5ccnc(NC(=O)C6CC6)c5)ccc34)cc(C(F)(F)F)c2)cn1` [Example 2, 6-[[2-(Cyclopropylcarbonyl)amino-pyridin-4-yl]oxy]-naphthalene-1-carboxylic acid [3-(4-methyl-1H-imidazol-1-yl)-5-(trifluoromethylphenyl)]amide], the melting point (in general, the temperature, or range, at which the solid turns liquid) lay in the range of 242 to 244 °C. In addition, the IC50 on Bcr-Abl fell in the range of 21 to 179 nM.
On to `Cc1cn(-c2cc(NC(=O)c3cccc4cc(Oc5ccnc(NC(=O)C(C)(C)C)c5)ccc34)cc(C(F)(F)F)c2)cn1` [Example 3], for which the melting point was > 120 °C.
The same measure, in the same setting: then `Cc1cn(-c2cc(NC(=O)c3cccc4cc(Oc5ccnc(NC(=O)C(C)(C)O)c5)ccc34)cc(C(F)(F)F)c2)cn1` [Example 4, 6-[[2-(2-Hydroxy-2-methylpropylcarbonyl)amino-pyridin-4-yl]oxy]-naphthalene-1-carboxylic acid [3-(4-methyl-1H-imidazol-1-yl)-5-(trifluoromethylphenyl)]amide], with 248 to 251 °C.
Turning to `Cc1cn(-c2cc(NC(=O)c3cccc4cc(Oc5ccnc(NC(=O)N(C)C)c5)ccc34)cc(C(F)(F)F)c2)cn1` [Example 5], the melting point is > 138 °C. Besides, the IC50 on c-Abl (His-cAbl) was < 5 nM.
`Cc1cn(-c2cc(NC(=O)c3cccc4cc(Oc5ccnc(Nc6ccccn6)c5)ccc34)cc(C(F)(F)F)c2)cn1` [Example 6, 6-[[2-[(2-Pyridinyl)amino]-4-pyridinyl]oxy]-naphthalene-1-carboxylic acid [3-(4-methyl-1H-imidazol-1-yl)-5-(trifluoromethylphenyl)]amide] had a melting point of 204 to 206 °C. Besides, in data set [1], the half-inhibitory concentration (IC50) fell in the range of 47 to 49 nM.
Consider `CC(=O)Nc1cc(Oc2ccc3c(C(=O)Nc4ccc(CN5CCN(C)CC5)c(C(F)(F)F)c4)cccc3c2)ccn1` [Example 7, 6-[[2-(Acetylamino)-pyridin-4-yl]oxy]-naphthalene-1-carboxylic acid [4-[(4-methyl-1-piperazinyl)methyl]-3-trifluoromethyl-phenyl]amide], for which the melting point lay within 112 to 114 °C. For the same compound, the IC50 at c-Abl (His-cAbl) was < 5 nM.
For the compound `CN1CCN(Cc2ccc(NC(=O)c3cccc4cc(Oc5ccnc(NC(=O)C6CC6)c5)ccc34)cc2C(F)(F)F)CC1` [Example 8, 6-[[2-(Cyclopropylcarbonyl)amino-pyridin-4-yl]oxy]-naphthalene-1-carboxylic acid [4-[(4-methyl-1-piperazinyl)methyl]-3-trifluoromethyl-phenyl]amide], on c-Abl (His-cAbl), the half-inhibitory concentration (IC50) was < 5 nM.
The same measure, in the same setting: then `CN1C2CCCC1CN(Cc1ccc(NC(=O)c3cccc4cc(Oc5ccnc(NC(=O)C6CC6)c5)ccc34)cc1C(F)(F)F)C2` [Example 11], with < 5 nM.
As to `Cc1ncc(-c2cc(NC(=O)c3cccc4cc(Oc5ccnc(NC(=O)C6CC6)c5)ccc34)cc(C(F)(F)F)c2)[nH]1` [Example 15], the IC50 in data set [1] is 36 to 57 nM.
As to `CC(=O)Nc1cc(Oc2ccc3c(C(=O)Nc4cc(-n5cnc(C)c5)cc(C(F)(F)F)c4)cccc3c2)ncn1` [Example 19, 6-[[6-(Acetylamino)-pyrimidin-4-yl]oxy]-naphthalene-1-carboxylic acid [3-(4-methyl-imidazol-1-yl)-5-trifluoromethyl-phenyl]-amide], the IC50 on c-Abl (His-cAbl) is < 5 nM.
`Cc1cn(-c2cc(NC(=O)c3cccc4cc(Oc5cc(NC(=O)C6CC6)ncn5)ccc34)cc(C(F)(F)F)c2)cn1` [Example 20, 6-[[6-(Cyclopropanecarbonyl)amino-pyrimidin-4-yl]oxy]-naphthalene-1-carboxylic acid [3-(4-methyl-imidazol-1-yl)-5-trifluoromethyl-phenyl]-amide] gave a melting point of 216 to 220 °C.
The same measure, in the same setting: then `Cc1cn(-c2cc(NC(=O)c3cccc4cc(Oc5cc(N)ncn5)ccc34)cc(C(F)(F)F)c2)cn1` [Example 21, 6-[[6-Amino-pyrimidin-4-yl]oxy]-naphthalene-1-carboxylic acid [3-(4-methyl-imidazol-1-yl)-5-trifluoromethyl-phenyl]-amide], with > 148 °C; and `Cc1cn(-c2cc(NC(=O)c3cccc4cc(Oc5ccnc(Nc6nccs6)c5)ccc34)cc(C(F)(F)F)c2)cn1` [Example 22, 6-[[N-[2-(4-methyl-2-thiazolyl)amino]-pyridin-4-yl]oxy]-naphthalene-1-carboxylic acid [3-(4-methyl-1H-imidazol-1-yl)-5-(trifluoromethylphenyl)]amide], with 277 to 282 °C.
Turning to `Cc1cn(-c2cc(NC(=O)c3cccc4cc(Oc5ccnc(NC(=O)[C@@H]6CCCN6)c5)ccc34)cc(C(F)(F)F)c2)cn1` [Example 25, 6-[[2-[(2S)-2-Pyrrolidinecarbonyl]amino-pyridin-4-yl]oxy]-naphthalene-1-carboxylic acid [3-(4-methyl-1H-imidazol-1-yl)-5-(trifluoromethylphenyl)]amide], the IC50 in data set [1] fell in the range of 65 to 68 nM.
